Here are results for one compound from patent US8252832B2, “Kinesin inhibitors as cancer therapeutics” (Novartis AG, priority 2007, dated 2012).

Read-outs that look alike come from different tables or passages of the source.

What all share (experiment): CellTiter-Glo, hematologic malignancy panel
Type in all cases: cell-based, human

One assay concerns KMS11-Luc. Particulars: MM; for GI50: Homo sapiens. The source says: (§1) Identification of tumor types that are the most sensitive to the KSP inhibitors of the present invention can be accomplished using an unbiased approach that uses several cell-based assays. The assays chosen were as follows: • CellTiter-Glo®. This is an assay designed to measure ATP concentration in a cell culture, and can be correlated to cell number. Briefly CellTiter-Glo® (Promega Corporation) is a homogeneous method using the single CellTiter-Glo® reagent to detect ATP wherein ATP in the assay drives the activity of a thermostable luciferase to create a luminescent signal which can then be measured and correlated with the number of viable cells. Briefly, for adherent cells, 1,000 to 5,000 cells/well were plated in 96-well plates (100 μl/well) and let to adhere for 24 hours before being treated with drug. For non-adherent cells, 1,000 to 10,000 cells/well were plated in 96-well plates (100 μl/well) and immediately treated with drug. Drug dilutions were prepared in DMSO at 1000 times the final concentration. These dilutions were then diluted 1/100 in growth media before being added to the cells (11 μl/well) to achieve the desired final concentration. After 48 h in a 37° C. tissue culture incubator, the plates were processed for the CellTiter-Glo®assay according to the manufacturer's instructions. Protocol for a 72 hour cell proliferation assay: The 72 hour assay was performed the same way as the 48 hour assay except for the following modifications: For adherent cells, 500 to 5,000 cells/well were plated in 96-well plates (90 μl/well cell growth media) and left to adhere for 24 hours before being treated with drug. For non-adherent cells, 1,000 to 10,000 cells/well were plated in 96-well plates (90 μl/well cell growth media) and immediately treated with drug. Data values presented represent the concentration of test compound required for a 50% reduction in growth. • LDH release. The Cytotoxicity Detection KitPLUS (LDH) assay (Roche Diagnostics, Manheim, Germany) measures the amount of LDH released in the media by dying cells; LDH catalyzes the conversion of lactate into pyruvate. The enzymatic reaction is coupled to a chemical reaction that uses a tetrazolium salt to form a formazan that is red and can be detected by its absorbance at 490 nm. This assay measures the amount of cell death after drug treatment. Cells were plated at 10,000 cells/well in 96-well plates (100 μl/well). Adherent cells were let to adhere for 24 hours before being treated with drug, whereas non-adherent cells were immediately treated with drug. Drug dilutions were prepared in DMSO at 1000 times the final concentration. These dilutions were then diluted 1/100 in growth media before being added to the cells (11 μl/well) to achieve the desired final concentration. After 48 h in a 37° C. tissue culture incubator, the plates were processed for the Cytotoxicity Detection KitPLUS (LDH) assay according to the manufacturer's instructions. The media only values were subtracted from all the data points before analysis. Data values presented correspond to the compound concentration wherein LDH output is at half maximal level. • Caspase-Glo® 3/7. The Caspase-Glo® 3/7 Assay (Promega Corporation) is a homogeneous luminescent assay that measures caspase-3/7 activities. The assay provides a proluminescent caspase-3/7 DEVD-aminoluciferin substrate and a thermostable luciferase in a reagent optimized for caspase-3/7 activity, luciferase activity and cell lysis. Adding the single Caspase-Glo® 3/7 Reagent results in cell lysis, followed by caspase cleavage of the substrate. This liberates free aminoluciferin, which is consumed by the luciferase, generating a luminescent signal. The signal is proportional to caspase-3/7 activity. Data values presented correspond to the compound concentration wherein caspase 3/7 activity is at half maximal level. […]

The next assay concerns MV4; 11Luc. As to conditions: AML; for GI50: Homo sapiens.
Text: as §1

The test system of another assay is MV4; 11. Particulars: AML; for GI50: Homo sapiens.
Text: as §1

Another assay deals with RL. As to conditions: NHL; for GI50: Homo sapiens.
Text: as §1

The mark [1] stands for this setting: GI50 in nM, read-out: Log(GI50) (converted).

As for `CC(C)(C)[C@H](c1nc(-c2cc(F)ccc2F)cn1Cc1ccccc1)N(CC[C@H](N)CF)C(=O)CO` [Compound IIa], the GI50 in the assay with KMS11-Luc (setting [1]) is 0.29 nM; in the assay with KMS11-Luc (read-out: GI50), 0.29 nM; in the assay with MV4; 11Luc (setting [1]), 0.105 nM; in the assay with MV4; 11Luc (read-out: GI50), 0.11 nM; with MV4; 11 (setting [1]) it was 0.0769 nM; in the assay on MV4; 11 (read-out: GI50), 0.08 nM. Besides, the GI50 in the assay with RL (setting [1]) and in the assay with RL (read-out: GI50) was 20 nM each time. Moreover, the “Differential vs mean Log(GI50)” value in the assay with KMS11-Luc is 0.068; with MV4; 11Luc, 0.509; in the assay with MV4; 11, 0.644; with RL, −1.771.

By GI50 is commonly meant the concentration giving 50% growth inhibition.
